# Assays:
# blackgrass = assay: Test B pre/postemergence blackgrass; type: in vivo, Alopecurus myosuroides
# Method in brief: (§1)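 Response is a visual 0-to-10 score relative to untreated plants, where 0 means no effect and 10 means complete control, taken twelve to sixteen days after application. Treatments went onto soil at planting and onto foliage of 1- to 4-leaf plants, using a surfactant-containing non-phytotoxic solvent.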
# wheat = assay: Test B pre/postemergence wheat; type: in vivo, Triticum aestivum
# Method in brief: as §1
# surinam grass = assay: Test B pre/postemergence surinam grass; type: in vivo, Brachiaria decumbens; conditions: Postemergence
# Method in brief: as §1
# velvetleaf = assay: Test B pre/postemergence velvetleaf; type: in vivo, Abutilon theophrasti
# Method in brief: as §1
# bedstraw = assay: Test B pre/postemergence bedstraw; type: in vivo, Galium aparine
# Method in brief: as §1
# smallflower flatsedge = assay: Test B flood test smallflower flatsedge; type: in vivo, Cyperus difformis
# Method in brief: (§2)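 Flood test on plants grown to the 2-leaf stage; treated plants kept in greenhouse twelve to sixteen days, then visually rated against controls on a 0 (no effect) to 10 (complete control) scale.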
# cocklebur = assay: Test B pre/postemergence cocklebur; type: in vivo, Xanthium strumarium
# Method in brief: as §1
# crabgrass = assay: Test B pre/postemergence crabgrass; type: in vivo, Digitaria sanguinalis
# Method in brief: as §1
# corn = assay: Test B pre/postemergence corn; type: in vivo, Zea mays
# Method in brief: as §1
# giant foxtail = assay: Test B pre/postemergence giant foxtail; type: in vivo, Setaria faberii
# Method in brief: as §1
# purple nutsedge = assay: Test B pre/postemergence purple nutsedge; type: in vivo, Cyperus rotundus
# Method in brief: as §1
# sugar beet = assay: Test B pre/postemergence sugar beet; type: in vivo, Beta vulgaris
# Method in brief: as §1
# rape = assay: Test B pre/postemergence rape; type: in vivo, Brassica napus
# Method in brief: as §1
# duck salad = assay: Test B flood test duck salad; type: in vivo, Heteranthera limosa
# Method in brief: as §2
# soybean = assay: Test B pre/postemergence soybean; type: in vivo, Glycine max
# Method in brief: as §1
# rice = assay: Test B flood test rice; type: in vivo, Oryza sativa
# Method in brief: as §2
# bamyardgrass = assay: Test B flood test barnyardgrass; type: in vivo, Echinochloa crus-galli
# Method in brief: as §2
# [1] = Postemergence, Rate 62 g/ha, scale 0 to 10, 0 is no effect, 10 is complete control
# [2] = Postemergence, Rate 125 g/ha, scale of 0 to 10 where 0 is no effect and 10 is complete control
# [3] = Preemergence, Rate 125 g/ha, scale of 0 to 10 where 0 is no effect and 10 is complete control
# [4] = Preemergence, Rate 250 g/ha, scale 0 (no effect) to 10 (complete control)
# [5] = Rate 62 g/ha, Preemergence, scale 0 to 10
# [6] = Rate 250 g/ha, Postemergence, scale 0 to 10, 0 is no effect, 10 is complete control
# [7] = Rate 500 g/ha, Postemergence, scale 0 to 10, 0 is no effect, 10 is complete control
# [8] = Rate 500 g/ha, Preemergence, scale 0 to 10 (0 no effect, 10 complete control)
# [9] = Pre-emergence, Rate 62 g/ha, scale 0 to 10, 0 is no effect, 10 is complete control
# [10] = Rate 125 g/ha, Pre-emergence section (flood test species), scale 0 to 10, 0 no effect, 10 complete control
# [11] = Rate 250 g/ha, Pre-emergence (flood test species), scale 0 to 10, 0 is no effect, 10 is complete control
# [12] = Rate 500 g/ha, Pre-emergence section of Table B, 0 to 10 scale (0 no effect, 10 complete control)
smiles,measurement,setting,value
CC(C)N(C(=O)n1oc(=O)n(CC2=NOCCO2)c1=O)c1ccc(Cl)cc1 [Compound 740],"Plant response rating, Blackgrass",blackgrass; [1],3
same,Blackgrass plant response rating,blackgrass; [2],3
same,"Plant response rating, Blackgrass",blackgrass; [3],6
same,Blackgrass plant response rating,blackgrass; [4],8
same,Blackgrass plant response rating,blackgrass; [5],3
same,Blackgrass plant response rating,blackgrass; [6],4
same,Blackgrass plant response rating,blackgrass; [7],7
same,Blackgrass plant response rating,blackgrass; [8],9
same,"Plant response rating, Wheat",wheat; [1],0
same,Wheat plant response rating,wheat; [2],0
same,"Plant response rating, Wheat",wheat; [3],0
same,Wheat plant response rating,wheat; [4],0
same,Wheat plant response rating,wheat; [5],0
same,Wheat plant response rating,wheat; [6],0
same,Wheat plant response rating,wheat; [7],4
same,Wheat plant response rating,wheat; [8],3
same,"Plant response rating, B. signalgrass","surinam grass; Rate 62 g/ha, scale 0 to 10, 0 is no effect, 10 is complete control",0
same,B. signalgrass plant response rating,"surinam grass; Rate 125 g/ha, scale of 0 to 10 where 0 is no effect and 10 is complete control",0
same,B. signalgrass plant response rating,"surinam grass; Rate 250 g/ha, scale 0 to 10, 0 is no effect, 10 is complete control",0
same,B. signalgrass plant response rating,"surinam grass; Rate 500 g/ha, scale 0 to 10, 0 is no effect, 10 is complete control",2
same,"Plant response rating, Velvetleaf",velvetleaf; [1],0
same,Velvetleaf plant response rating,velvetleaf; [2],0
same,"Plant response rating, Velvetleaf",velvetleaf; [3],0
same,Velvetleaf plant response rating,velvetleaf; [4],0
same,Velvetleaf plant response rating,velvetleaf; [5],0
same,Velvetleaf plant response rating,velvetleaf; [6],2
same,Velvetleaf plant response rating,velvetleaf; [7],2
same,Velvetleaf plant response rating,velvetleaf; [8],3
same,"Plant response rating, Bedstraw",bedstraw; [1],0
same,Bedstraw plant response rating,bedstraw; [2],0
same,"Plant response rating, Bedstraw",bedstraw; [3],0
same,Bedstraw plant response rating,bedstraw; [4],0
same,Bedstraw plant response rating,bedstraw; [5],0
same,Bedstraw plant response rating,bedstraw; [7],0
same,Bedstraw plant response rating,bedstraw; [8],0
same,S. Flatsedge plant response rating,smallflower flatsedge; [9],0
same,S. Flatsedge plant response rating,smallflower flatsedge; [10],0
same,S. Flatsedge plant response rating,smallflower flatsedge; [11],0
same,S. Flatsedge plant response rating,smallflower flatsedge; [12],0
same,"Plant response rating, Cocklebur",cocklebur; [1],0
same,Cocklebur plant response rating,cocklebur; [2],0
same,"Plant response rating, Cocklebur",cocklebur; [3],0
same,Cocklebur plant response rating,cocklebur; [4],0
same,Cocklebur plant response rating,cocklebur; [5],0
same,Cocklebur plant response rating,cocklebur; [6],3
same,Cocklebur plant response rating,cocklebur; [7],3
same,Cocklebur plant response rating,cocklebur; [8],0
same,"Plant response rating, Crabgrass",crabgrass; [1],0
same,Crabgrass plant response rating,crabgrass; [2],0
same,"Plant response rating, Crabgrass",crabgrass; [3],4
same,Crabgrass plant response rating,crabgrass; [4],9
same,Crabgrass plant response rating,crabgrass; [5],4
same,Crabgrass plant response rating,crabgrass; [6],9
same,Crabgrass plant response rating,crabgrass; [7],9
same,Crabgrass plant response rating,crabgrass; [8],9
same,"Plant response rating, Corn",corn; [1],0
same,Corn plant response rating,corn; [2],0
same,"Plant response rating, Corn",corn; [3],0
same,Corn plant response rating,corn; [4],0
same,Corn plant response rating,corn; [5],0
same,Corn plant response rating,corn; [6],0
same,Corn plant response rating,corn; [7],0
same,Corn plant response rating,corn; [8],0
same,"Plant response rating, Giant foxtail",giant foxtail; [1],2
same,Giant foxtail plant response rating,giant foxtail; [2],7
same,"Plant response rating, Giant foxtail",giant foxtail; [3],9
same,Giant foxtail plant response rating,giant foxtail; [4],9
same,Giant foxtail plant response rating,giant foxtail; [5],4
same,Giant foxtail plant response rating,giant foxtail; [6],8
same,Giant foxtail plant response rating,giant foxtail; [7],9
same,Giant foxtail plant response rating,giant foxtail; [8],10
same,"Plant response rating, Nutsedge",purple nutsedge; [1],0
same,Nutsedge plant response rating,purple nutsedge; [2],0
same,"Plant response rating, Nutsedge",purple nutsedge; [3],0
same,Nutsedge plant response rating,purple nutsedge; [4],0
same,Nutsedge plant response rating,purple nutsedge; [5],0
same,Nutsedge plant response rating,purple nutsedge; [6],0
same,Nutsedge plant response rating,purple nutsedge; [7],0
same,Nutsedge plant response rating,purple nutsedge; [8],0
same,"Plant response rating, Sugarbeets",sugar beet; [1],0
same,Sugarbeets plant response rating,sugar beet; [2],0
same,Sugarbeets plant response rating,sugar beet; [4],3
same,Sugarbeets plant response rating,sugar beet; [5],0
same,Sugarbeets plant response rating,sugar beet; [6],2
same,Sugarbeets plant response rating,sugar beet; [7],2
same,Sugarbeets plant response rating,sugar beet; [8],5
same,"Plant response rating, Rape",rape; [1],0
same,Rape plant response rating,rape; [2],0
same,"Plant response rating, Rape",rape; [3],3
same,Rape plant response rating,rape; [4],5
same,Rape plant response rating,rape; [5],0
same,Rape plant response rating,rape; [6],0
same,Rape plant response rating,rape; [7],0
same,Ducksalad plant response rating,duck salad; [9],0
same,Ducksalad plant response rating,duck salad; [10],0
same,Ducksalad plant response rating,duck salad; [11],0
same,Ducksalad plant response rating,duck salad; [12],0
same,"Plant response rating, Soybean",soybean; [1],2
same,Soybean plant response rating,soybean; [2],3
same,"Plant response rating, Soybean",soybean; [3],0
same,Soybean plant response rating,soybean; [4],0
same,Soybean plant response rating,soybean; [5],0
same,Soybean plant response rating,soybean; [6],4
same,Soybean plant response rating,soybean; [7],6
same,Soybean plant response rating,soybean; [8],0
same,Rice plant response rating,rice; [9],0
same,Rice plant response rating,rice; [10],0
same,Rice plant response rating,rice; [11],0
same,Rice plant response rating,rice; [12],0
same,Barnyardgrass plant response rating,bamyardgrass; [9],0
same,Barnyardgrass plant response rating,bamyardgrass; [10],0
same,Barnyardgrass plant response rating,bamyardgrass; [11],0
same,Barnyardgrass plant response rating,bamyardgrass; [12],0
